Results taken from PMC7076385, “Evaluation of the Solid Dispersion System Engineered from Mesoporous Silica and Polymers for the Poorly Water Soluble Drug Indomethacin: In Vitro and In Vivo” (Pharmaceutics, 2020).
Values after ≈ are worked out from the molar mass of the structure shown.

Columns and labels:
[1] = Solubility studies (crystalline and amorphous solubility, UV analysis); assay type: physicochemical; settings: phosphate buffered saline (PBS), pH 6.8 PBS, 25 °C
Experimental: The “crystalline solubility” was measured by the following method. An excess amount of crystal IMC powder was added to 10 mL of pH 6.8 PBS. These mixtures were kept at 25 °C and stirred at 300 rpm for 48 h. Ultracentrifugation was performed at 12,000 rpm and 25 °C for 30 min to separate excess solids using an Optima L-100XP ultracentrifuge (Beckman Coulter Inc., Brea, CA, USA). Then 5 mL of the supernatant was taken for ultraviolet (UV) spectroscopy analysis. All samples were prepared in triplicate.
The solubility of the amorphous IMC in the presence of excipients was also determined by calculating the solution concentration evolved from SDs at 25 °C after 48 h. Briefly, IMC–SDs were prepared by solvent evaporation directly from scintillation vials using a rotary evaporator. Then, 10 mL of pH 6.8 PBS was added. Solution concentration measurements were conducted following the ultraviolet (UV) spectroscopy analysis. The concentration of IMC was calculated with a standard curve built before.

[2] = In vitro dissolution, USP II paddle method; assay type: physicochemical; settings: at 90 min, pH 6.8 PBS
Experimental: The optimum ratios of all solid dispersion carriers were selected by drug release experiments in vitro. In vitro dissolution studies on pure IMC and SDs with different carriers were carried out using the United States Pharmacopeia Apparatus II (USP II) paddle method (100 rpm, 37 °C, and 250 mL pH 6.8 phosphate buffer solutions) with a ZRS-8G dissolution tester (Shanghai, China). Ten milligrams of sample powder was placed in the dissolution medium, and 5 mL of pH 6.8 phosphate buffer solution (PBS, artificial intestinal fluid) was withdrawn at pre-designed time intervals (0, 5, 10, 15, 20, 30, 40, 50, 60 and 90 min) prior to filtration. The concentration of samples was analyzed using an UV spectrophotometer (756 PC UV-2200, Shanghai, China) at 320 nm. All measurements were repeated three times.

[3] = In vivo pharmacokinetic study after oral administration; settings: male, Sprague-Dawley, rat, plasma, rats, 40 mg/kg
Experimental: Male Sprague–Dawley rats (body weight 200 ± 20 g) were randomly divided into three groups (n = 3). Sprague–Dawley rats (200 ± 20 g) were obtained from Animal Experiment Center of Shanghai Institute of Material Medica, Shanghai, China. All animal experiments were performed by strictly following Institutional Animal Care and Use Committee (IACUC) guidelines (71044, 10 August 2019). Prior to the experiments, the rats were fasted overnight with free access to water. Aqueous suspensions of IMC, SDs with MSNs (F3), SDs with MSNs and Kollicoat IR (F6), and SDs with MSNs and HPMC (F9) at 40 mg/kg were orally administered, respectively, and blood samples (0.5 mL) were collected at different time points (0, 0.5, 1, 2, 4, 6, 8, 12, and 24 h) in microcentrifuge tubes containing heparin by retro-orbital venipuncture technique. The blood samples were immediately centrifuged at 4000 rpm for 10 min, and the supernatant was collected for further processing.
Plasma samples were processed as follows: 200 µL plasma samples were mixed with 20 µL of an internal standard solution (0.5 mg/mL naproxen), 90 µL 10% KH2PO4, and 1 mL dichloromethane, and then the mixture was vortexed for 3 min. Then, the mixture solutions were centrifuged at 10,000 rpm for 4 min, the organic layer was remained, and then the organic layer was evaporated in a gentle stream of nitrogen at room temperature. The residue was suspended in 100 µL of the mobile phase (acetonitrile:0.01 M H3PO4 = 55:45). After vortex mixing and centrifugation, samples were analyzed using HPLC.

[4] = based on Equations (6) and (7); cited from earlier work

COc1ccc2c(c1)c(CC(=O)O)c(C)n2C(=O)c1ccc(Cl)cc1 [IMC, Indomethacin]
solubility at 48 h [1]: 23 µg/mL (≈ 64.3 µM)
Folds (increase of cumulative dissolution rate compared to pure IMC) [2]: 1.00 ± 0.28 folds
Cumulative Drug Dissolution Rate (%) ([2]; 37 °C, 100 rpm, mean ± SD, n = 3): 27.43 ± 0.96%
Tmax [3]: 4 h
AUC(0-t) ([3]; mean ± SD, n = 3): 1240 ± 189 µg·h/mL
Cmax ([3]; mean ± SD, n = 3): 125 ± 3.8 µg/mL
Hansen solubility parameter δ [4]: 24.8 MPa^1/2
